According to ChEMBL document CHEMBL1137117, “Cinnamic acid esters as potent inhibitors of fungal 17beta-hydroxysteroid dehydrogenase--a model enzyme of the short-chain dehydrogenase/reductase superfamily” (Bioorg Med Chem Lett, 2004):

Tests used:
Parameters in all cases: species or system Curvularia lunata
[1] = target: T1, 17-beta-hydroxysteroid-dehydrogenase (Cochliobolus lunatus, UniProt O93874); assay: Inhibitory activity against 17 beta-hydroxysteroid dehydrogenase catalysed oxidation reaction
T1 sequence (O93874 whole entry): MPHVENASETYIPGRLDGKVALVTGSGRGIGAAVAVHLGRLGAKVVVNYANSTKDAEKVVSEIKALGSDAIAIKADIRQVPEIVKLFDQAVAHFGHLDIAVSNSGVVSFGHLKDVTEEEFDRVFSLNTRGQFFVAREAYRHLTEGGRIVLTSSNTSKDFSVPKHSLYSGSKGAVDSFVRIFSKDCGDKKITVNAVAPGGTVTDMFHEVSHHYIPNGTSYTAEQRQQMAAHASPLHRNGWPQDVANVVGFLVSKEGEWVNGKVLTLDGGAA

[2] = target: T1, 17-beta-hydroxysteroid-dehydrogenase; assay: Inhibitory activity against 17 beta-hydroxysteroid dehydrogenase catalysed reduction reaction
[3] = target: T1, 17-beta-hydroxysteroid-dehydrogenase; assay: Inhibitory activity against 17 beta-hydroxysteroid dehydrogenase catalysed oxidation reaction; NI=no inhibition
[4] = target: T1, 17-beta-hydroxysteroid-dehydrogenase; assay: Inhibitory activity against 17 beta-hydroxysteroid dehydrogenase catalysed reduction reaction; NI=no inhibition

Structure (SMILES) | IC50 [1] | IC50 ([2]; read-out: IC50) | IC50 [3] | IC50 [4] | IC50 [2]
O=C(OCc1ccccc1)c1cc2ccccc2oc1=O | 2.7 µM | 8 µM | – | – | –
CC(=O)Nc1ccc(OC(=O)/C=C/c2ccccc2)cc1 | > 200 µM | > 200 µM | – | – | –
COc1cc(COC(=O)c2cc3ccccc3oc2=O)cc(OC)c1OC | – | – | Not Active | Not Active | –
N#Cc1ccc(OC(=O)/C=C/c2ccccc2)cc1 | 13 µM | – | – | Not Active | –
O=C(/C=C/c1ccccc1)OCc1cccc(Oc2ccccc2)c1 | 130 µM | – | – | Not Active | –
COc1cc(COC(=O)/C=C/c2ccccc2)cc(OC)c1OC | 14 µM | – | – | Not Active | –
O=C(/C=C/c1ccccc1)OCN1C(=O)c2ccccc2C1=O | 10 µM | – | – | Not Active | –
COc1cccc(OC(=O)/C=C/c2ccccc2)c1 | 135 µM | – | – | – | No inhibition
O=C(/C=C/c1ccccc1)Oc1cccc2ccccc12 | 10 µM | – | – | – | –
O=C(OCN1C(=O)c2ccccc2C1=O)c1cc2ccccc2oc1=O | – | – | Not Active | Not Active | –
CCCCCCCC(=O)Nc1ccc(OC(=O)/C=C/c2ccccc2)cc1 | > 200 µM | > 200 µM | – | – | –
O=C(/C=C/c1ccccc1)OCCN1C(=O)c2ccccc2C1=O | 5 µM | 90 µM | – | – | –
O=C(OCCN1C(=O)c2ccccc2C1=O)c1cc2ccccc2oc1=O | – | – | Not Active | Not Active | –
O=C(/C=C/c1ccccc1)OC1CCCCC1 | – | – | Not Active | Not Active | –
O=C(/C=C/c1ccccc1)OCc1ccccc1 [BENZYL CINNAMATE] | 0.7 µM | 7 µM | – | – | –
O=C(/C=C/c1ccccc1)Oc1ccccc1 [PHENYL CINNAMATE] | 26 µM | > 200 µM | – | – | –
